Data: BindingDB's records for doi:10.1021/jm0000416 (University of Paris, 2000)
Numbered stars: 1 amine (or outer) side, 2 acyl side, 3 side chain; on linkers, the order of the positions; unused ones are H or OH. Square brackets hold non-standard residues; d marks the D form. Peptide text beside a SMILES is read from it. * marks the point of attachment. Heptanedioyl = O=C(CCCCCC(=O)[*:2])[*:1]; NMeNle = CCCC[C@H](NC)C(=O)O; Malonamoyl = NC(=O)CC(=O)*; Methoxyacetyl = COCC(=O)*; Isobutyryl = CC(C)C(=O)*; X3 = O=C(CS(=O)(=O)O)*; Boc = CC(C)(C)OC(=O)*; X2 = COC(=O)CC(=O)*; X4 = CC(=O)CC(=O)*; βAla = NCCC(=O)O

These compounds were tested against Gastrin/cholecystokinin type B receptor (Cavia porcellus) (assay: Binding affinity against cholecystokinin type B receptor on guinea pig cortex.).

| Ki [nM] | SMILES |
| --- | --- |
| 95 | CCCC[C@@H](C(=O)N[C@@H](CC(=O)O)C(=O)N[C@@H](Cc1ccccc1)C(N)=O)N(C)C(=O)[C@H](Cc1c[nH]c2ccccc12)NC(=O)CCN [3-(2-{[2-(3-Amino-propionylamino)-3-(1H-indol-3-yl)-propionyl]-methyl-amino}-hexanoylamino)-N-(1-carbamoyl-2-phenyl-ethyl)-succinamic acid] (H-[βAla]W[NMeNle]DF-NH2) |
| 2.52 | CCCC[C@@H](C(=O)N[C@@H](CC(=O)O)C(=O)N[C@@H](Cc1ccccc1)C(N)=O)N(C)C(=O)[C@H](Cc1c[nH]c2ccccc12)NC(=O)COC [N-(1-Carbamoyl-2-phenyl-ethyl)-3-(2-{[3-(1H-indol-3-yl)-2-(2-methoxy-acetylamino)-propionyl]-methyl-amino}-hexanoylamino)-succinamic acid] (Methoxyacetyl-W[NMeNle]DF-NH2) |
| 3.61 | CCCC[C@@H](C(=O)N[C@@H](CC(=O)O)C(=O)N[C@@H](Cc1ccccc1)C(N)=O)N(C)C(=O)[C@H](Cc1c[nH]c2ccccc12)NC(=O)CC(=O)OC [N-(1-Carbamoyl-2-phenyl-ethyl)-3-(2-{[3-(1H-indol-3-yl)-2-(2-methoxycarbonyl-acetylamino)-propionyl]-methyl-amino}-hexanoylamino)-succinamic acid] (X2-W[NMeNle]DF-NH2) |
| 20 | CCCC[C@@H](C(=O)N[C@@H](CC(=O)O)C(=O)N[C@@H](Cc1ccccc1)C(N)=O)N(C)C(=O)[C@H](Cc1c[nH]c2ccccc12)NC(=O)[C@H](C)N [3-(2-{[2-(2-Amino-propionylamino)-3-(1H-indol-3-yl)-propionyl]-methyl-amino}-hexanoylamino)-N-(1-carbamoyl-2-phenyl-ethyl)-succinamic acid] |
| 1.37 | CCCC[C@@H](C(=O)N[C@@H](CC(=O)O)C(=O)N[C@@H](Cc1ccccc1)C(N)=O)N(C)C(=O)[C@H](Cc1c[nH]c2ccccc12)NC(=O)C(C)C [N-(1-Carbamoyl-2-phenyl-ethyl)-3-(2-{[3-(1H-indol-3-yl)-2-isobutyrylamino-propionyl]-methyl-amino}-hexanoylamino)-succinamic acid] (Isobutyryl-W[NMeNle]DF-NH2) |
| 992 | CCCC[C@@H](C(=O)N[C@@H](CC(=O)O)C(=O)N[C@@H](Cc1ccccc1)C(N)=O)N(C)C(=O)[C@H](Cc1c[nH]c2ccccc12)NC(=O)CCCCCC(=O)O [6-[1-({1-[1-(1-Carbamoyl-2-phenyl-ethylcarbamoyl)-2-carboxy-ethylcarbamoyl]-pentyl}-methyl-carbamoyl)-2-(1H-indol-3-yl)-ethylcarbamoyl]-hexanoic acid] (Heptanedioyl-W[NMeNle]DF-NH2) |
| 2.6 | CCCC[C@@H](C(=O)N[C@@H](CC(=O)O)C(=O)N[C@@H](Cc1ccccc1)C(N)=O)N(C)C(=O)[C@@H](N)Cc1c[nH]c2ccccc12 [3-(2-{[2-Amino-3-(1H-indol-3-yl)-propionyl]-methyl-amino}-hexanoylamino)-N-(1-carbamoyl-2-phenyl-ethyl)-succinamic acid] (H-W[NMeNle]DF-NH2) |
| 3.84 | CCCC[C@@H](C(=O)N[C@@H](CC(=O)O)C(=O)N[C@@H](Cc1ccccc1)C(N)=O)N(C)C(=O)[C@H](Cc1c[nH]c2ccccc12)NC(=O)CC(C)=O [N-(1-Carbamoyl-2-phenyl-ethyl)-3-(2-{[3-(1H-indol-3-yl)-2-(3-oxo-butyrylamino)-propionyl]-methyl-amino}-hexanoylamino)-succinamic acid] (X4-W[NMeNle]DF-NH2) |
| 2.05 | CCCC[C@@H](C(=O)N[C@@H](CC(=O)O)C(=O)N[C@@H](Cc1ccccc1)C(N)=O)N(C)C(=O)[C@H](Cc1c[nH]c2ccccc12)NC(=O)CC(N)=O [3-(2-{[2-(2-Carbamoyl-acetylamino)-3-(1H-indol-3-yl)-propionyl]-methyl-amino}-hexanoylamino)-N-(1-carbamoyl-2-phenyl-ethyl)-succinamic acid] (Malonamoyl-W[NMeNle]DF-NH2) |
| 0.54 | CCCC[C@@H](C(=O)N[C@@H](CC(=O)O)C(=O)N[C@@H](Cc1ccccc1)C(N)=O)N(C)C(=O)[C@H](Cc1c[nH]c2ccccc12)NC(=O)CS(=O)(=O)O [N-(1-Carbamoyl-2-phenyl-ethyl)-3-(2-{[3-(1H-indol-3-yl)-2-(2-sulfo-acetylamino)-propionyl]-methyl-amino}-hexanoylamino)-succinamic acid] (X3-W[NMeNle]DF-NH2) |

| SMILES | Ki [nM] |
| --- | --- |
| CCCC[C@@H](C(=O)N[C@@H](CC(=O)O)C(=O)N[C@@H](Cc1ccccc1)C(N)=O)N(C)C(=O)[C@H](Cc1c[nH]c2ccccc12)NC(=O)CCNC(=O)OC(C)(C)C [3-(2-{[2-(3-tert-Butoxycarbonylamino-propionylamino)-3-(1H-indol-3-yl)-propionyl]-methyl-amino}-hexanoylamino)-N-(1-carbamoyl-2-phenyl-ethyl)-succinamic acid] ({Boc-βAla}-W[NMeNle]DF-NH2) | 1.35 |
